Experimental data reported in US10392373B2, “Oxazole derivatives that inhibit Syk” (AB Science, priority 2015, dated 2019).

target: T1, SYK kinase (Homo sapiens, UniProt P43405); assay: In vitro Syk inhibition assay (Kinase TK HTRF, Cisbio); type: biochemical; conditions: full length SYK purified from a baculovirus system; ATP at least twice the Km; room temperature; average of triplicate; read-out: IC50: Concentration inhibiting 50% of protein kinase
T1 construct: SYK kinase was purified as a full length protein in a baculovirus system near homogeneity; made in house
Method: Protocol Inhibition Assays.
SYK kinase was purified as a full length protein in a baculovirus system near homogeneity. All kinase assays were performed with the Kinase TK (tyrosine kinase) HTRF (Homogeneous Time Resolved Fluorescence) assay developed by Cisbio international. These assays were carried out at room temperature in 96-wells half-area white plates in a final volume of 25 μl of kinase buffer (10 mM MgCl2; 2 mM MnCl2; 50 mM Sodium-HEPES pH 7.8; BRIJ-35 0.01%, 1 μM substrate) containing ATP at a concentration of at least twice the Km for each enzyme and an appropriate amount of recombinant enzyme to ensure a linear reaction rate. Reactions were initiated upon introduction of the enzyme and terminated with the addition of one reaction volume (25 μl) of HTRF detection buffer. Plates were incubated for one hour at room temperature and the time resolved Fluorescence resonance energy transfer signal was measured in a Pherastar FS microplate reader (BMG Labtech). All data are the average of triplicate results with a standard deviation <10%.

| SMILES | IC50 |
| --- | --- |
| CC1C(=O)NCCN1c1ncc(-c2cccc(Nc3nccc(N4CCCC4)n3)c2)o1 (stereo not drawn) [Compound 028, 3-Methyl-4-{5-[3-(4-pyrrolidin-1-yl-pyrimidin-2-ylamino)-phenyl]-oxazol-2-yl}-piperazin-2-one] | 100 to 1000 nM |
| CC1C(=O)NCCN1c1ncc(-c2cccc(Nc3nccc(N4CCN(C)CC4)n3)c2)o1 (stereo not drawn) [Compound 029, 3-Methyl-4-(5-{3-[4-(4-methyl-piperazin-1-yl)-pyrimidin-2-ylamino]-phenyl}-oxazol-2-yl)-piperazin-2-one] | 1000 to 10000 nM |
| CC1(C)C(=O)NCCN1c1ncc(-c2cccc(Nc3nccc(N4CCOCC4)n3)c2)o1 [Compound 030, 3,3-Dimethyl-4-{5-[3-(4-morpholin-4-yl-pyrimidin-2-ylamino)-phenyl]-oxazol-2-yl}-piperazin-2-one] | 100 to 1000 nM |
| CN1CCN(c2ccnc(Nc3cccc(-c4cnc(N5CCNC(=O)C5(C)C)o4)c3)n2)CC1 [Compound 031, 3,3-Dimethyl-4-(5-{3-[4-(4-methyl-piperazin-1-yl)-pyrimidin-2-ylamino]-phenyl}-oxazol-2-yl)-piperazin-2-one] | 1000 to 10000 nM |
| CC1(C)C(=O)NCCN1c1ncc(-c2cccc(Nc3nccc(N4CCCC4)n3)c2)o1 [Compound 032, 3,3-Dimethyl-4-{5-[3-(4-pyrrolidin-1-yl-pyrimidin-2-ylamino)-phenyl]-oxazol-2-yl}-piperazin-2-one] | 1000 to 10000 nM |
| CC(C)C1C(=O)NCCN1c1ncc(-c2cccc(Nc3nccc(N4CCOCC4)n3)c2)o1 (stereo not drawn) [Compound 033, 3-Isopropyl-4-{5-[3-(4-morpholin-4-yl-pyrimidin-2-ylamino)-phenyl]-oxazol-2-yl}-piperazin-2-one] | 1000 to 10000 nM |
| CC(C)C1C(=O)NCCN1c1ncc(-c2cccc(Nc3nccc(N4CCCC4)n3)c2)o1 (stereo not drawn) [Compound 034, 3-Isopropyl-4-{5-[3-(4-pyrrolidin-1-yl-pyrimidin-2-ylamino)-phenyl]-oxazol-2-yl}-piperazin-2-one] | 1000 to 10000 nM |
| CC(C)C1C(=O)NCCN1c1ncc(-c2cccc(Nc3nccc(N4CCN(C)CC4)n3)c2)o1 (stereo not drawn) [Compound 035, 3-Isopropyl-4-(5-{3-[4-(4-methyl-piperazin-1-yl)-pyrimidin-2-ylamino]-phenyl}-oxazol-2-yl)-piperazin-2-one] | 1000 to 10000 nM |
| CC(C)c1ccnc(Nc2cccc(-c3cnc(N4CCNC(=O)C4C(C)C)o3)c2)n1 (stereo not drawn) [Compound 036, 3-Isopropyl-4-{5-[3-(4-isopropyl-pyrimidin-2-ylamino)-phenyl]-oxazol-2-yl}-piperazin-2-one] | ≤ 100 nM |
| CCc1ccnc(Nc2cccc(-c3cnc(N4CCNC(=O)C4(C)C)o3)c2)n1 [Compound 037, 4-{5-[3-(4-Ethyl-pyrimidin-2-ylamino)-phenyl]-oxazol-2-yl}-3,3-dimethyl-piperazin-2-one] | ≤ 100 nM |
| CCc1ccnc(Nc2cccc(-c3cnc(N4CCNC(=O)C4C(C)C)o3)c2)n1 (stereo not drawn) [Compound 038, 4-{5-[3-(4-Ethyl-pyrimidin-2-ylamino)-phenyl]-oxazol-2-yl}-3-isopropyl-piperazin-2-one] | ≤ 100 nM |
| Cc1ccnc(Nc2cccc(-c3cnc(N4CCNC(=O)[C@@H]4C(C)C)o3)c2)n1 [Compound 039, (S)-3-Isopropyl-4-{5-[3-(4-methyl-pyrimidin-2-ylamino)-phenyl]-oxazol-2-yl}-piperazin-2-one] | 100 to 1000 nM |
| Cc1ccnc(Nc2cccc(-c3cnc(N4CCNC(=O)[C@H]4C(C)C)o3)c2)n1 [Compound 040, (R)-3-Isopropyl-4-{5-[3-(4-methyl-pyrimidin-2-ylamino)-phenyl]-oxazol-2-yl}-piperazin-2-one] | ≤ 100 nM |
| CC1C(=O)NCCN1c1ncc(-c2cccc(Nc3nccc(C4CC4)n3)c2)o1 (stereo not drawn) [Compound 041, 4-{5-[3-(4-Cyclopropyl-pyrimidin-2-ylamino)-phenyl]-oxazol-2-yl}-3-methyl-piperazin-2-one] | ≤ 100 nM |
| CC1(C)C(=O)NCCN1c1ncc(-c2cccc(Nc3nccc(C4CC4)n3)c2)o1 [Compound 042, 4-{5-[3-(4-Cyclopropyl-pyrimidin-2-ylamino)-phenyl]-oxazol-2-yl}-3,3-dimethyl-piperazin-2-one] | ≤ 100 nM |
| CC(C)C1C(=O)NCCN1c1ncc(-c2cccc(Nc3nccc(C4CC4)n3)c2)o1 (stereo not drawn) [Compound 043, 4-{5-[3-(4-Cyclopropyl-pyrimidin-2-ylamino)-phenyl]-oxazol-2-yl}-3-isopropyl-piperazin-2-one] | ≤ 100 nM |
| Cc1ccnc(Nc2cc(CN(C)C)cc(-c3cnc(N4CCNC(=O)C4(C)C)o3)c2)n1 [Compound 044, 4-{5-[3-Dimethylaminomethyl-5-(4-methyl-pyrimidin-2-ylamino)-phenyl]-oxazol-2-yl}-3,3-dimethyl-piperazin-2-one] | 100 to 1000 nM |
| Cc1ccnc(Nc2cc(CN3CCCC3)cc(-c3cnc(N4CCNC(=O)C4(C)C)o3)c2)n1 [Compound 045, 3,3-Dimethyl-4-{5-[3-(4-methyl-pyrimidin-2-ylamino)-5-pyrrolidin-1-ylmethyl-phenyl]-oxazol-2-yl}-piperazin-2-one] | 100 to 1000 nM |
